Results taken from patent publication US6437138B1, “3-pyridyloxymethyl heterocyclic ether compounds useful in controlling chemical synaptic transmission” (priority 1996, dated 2002).
Structures can show the parent of a compound that is named as a salt.

Legend:
[1] = target: neuronal nicotinic cholinergic channels in IMR-32 cells (Homo sapiens, UniProt P30926+P32297); test: 86Rb+ efflux in IMR-32 cells (activation, or inhibition of efflux elicited by (S)-nicotine); type: cell-based; settings: for inhibition at 1 µM / inhibition at 10 µM / Emax: IMR-32; for inhibition at 10 µM: single dose 10 μM; for Emax: read-out: IMR-32 maximal response
Text: For the purpose of directly evaluating the ability of test compounds to functionally activate or inhibit certain subtypes of neuronal nicotinic cholinergic channels, an assay to determine ^86Rb^+Efflux in IMR-32 cells was employed (Protocol B below).
B. Protocols for the Determination of Functional Effects of Cholinerzic Channel Receptor Ligands on Synaptic Transmission
Cells of the IMR-32 human neuroblastoma clonal cell line (ATCC, Rockville, Md.) were maintained in a log phase of growth according to established procedures (Lukas, 1993). Experimental cells were seeded at a density of 500,000 cells/ml into a 24-well tissue culture dish. Plated cells were allowed to proliferate for at least 48 hours before loading with 2 μCi/ml of ^86Rb^+ (35 Ci/mmol) overnight at 37° C. The ^86Rb^+ efflux assays were performed according to previously published protocols (Lukas, R. J., J. Pharmacol. Exp. Ther., 265: 294-302, 1993) except serum-free Dulbecco's Modified Eagle's Medium was used during the ^86Rb^+ loading, rinsing, and agonist-induced efflux steps.
EC50 data and maximal responses (reported as percent relative to the response elicited by 100 μM (S)-nicotine) are shown for selected compounds of the invention. The inhibition data (given for a larger number of compounds) reflect inhibition of the efflux elicited by 100 μM (S)-nicotine for either a single dose (% inhibition at 1 μM or at 10 μM) or over a range of doses (IC50 of inhibition). […] This finding is in agreement with the results of others who have linked dopamine release, which is dependent upon the ion flux in synaptic transmission, to binding at nicotinic receptors (cf., for example, Lippiello and Caldwell, U.S. Pat. No. 5,242,935, issued Sep. 7, 1993; Caldwell and Lippiello, U.S. Pat. No. 5,248,690, issued Sep. 28, 1993; and Wonnacott et al., Prog. Brain Res., 79: 157-163 (1989)).

[2] = inhibition of the efflux elicited by 100 μM (S)-nicotine, single dose 1 μM
[3] = inhibition of the efflux elicited by 100 μM (S)-nicotine
[4] = 86Rb+ efflux, percent relative to the response elicited by 100 μM (S)-nicotine

Compound: CCCCC#Cc1cncc(OC[C@@H]2CCCN2C)c1 [Example 4, 5-Hexynyl-3-(1-methyl-2-(S)-pyrrolidinylmethoxy)pyridine Dihydrochloride]
- inhibition at 1 µM [1, 2]: 55%

Compound: CN1CCC[C@H]1COc1cncc(C=Cc2ccncc2)c1 [Example 13, 5-(2-(4-Pyridinyl)ethenylyl)-3-((1-methyl-2-(S)-pyrrolidinylmethoxy)pyridine Triihydrochloride]
- inhibition at 1 µM [1, 2]: 50%

Compound: CN1CCC[C@H]1COc1cncc(C#CCCCC#N)c1 [Example 14, (5-(5-Cyano-1-pentynyl-3-(1-methyl-2-(S)-pyrrolidinylmethoxy)pyridine Dihydrochloride]
- inhibition at 1 µM [1, 2]: 50%

Compound: COC(=O)CCc1cncc(OC[C@@H]2CCCN2C)c1 [Example 15, 5-(2-(Methoxycarbonyl)ethyl)-3-(1-methyl-2-(S)-pyrrolidinylmethoxy)pyridine Dihydrochloride]
- inhibition at 1 µM [1, 2]: 16%
- inhibition at 10 µM [1, 3]: 83%

Compound: COC(=O)C=Cc1cncc(OC[C@@H]2CCCN2C)c1 [Example 16, 5-(2-(Methoxycarbonyl)ethenyl-3-(1-methyl-2-(S)-pyrrolidinylmethoxy)pyridine Dihydrochloride]
- inhibition at 1 µM [1, 2]: 6%

Compound: CN1CCC[C@H]1COc1cncc(C#CCCCc2ccccc2)c1 [Example 17, 5-(5-Phenyl-1-pentynyl)-3-(1-methyl-2-(S)-pyrrolidinylmethoxy)pyridine Dihydrochloride]
- inhibition at 1 µM [1, 2]: 32%
- inhibition at 10 µM [1, 3]: 100%

Compound: CCCC(=O)C=Cc1cncc(OC[C@@H]2CCCN2C)c1 [Example 22, 5-(3-oxo-1-Hexenyl)-3-(1-methyl-2-(S)-pyrrolidinylmethoxy)pyridinine Dihydrochloride]
- inhibition at 1 µM [1, 2]: 44%

Compound: Cl.Cl.Clc1ncc(OC[C@@H]2CCCN2)cc1Br [Example 23, 5-Bromo-6-chloro-3-(2-(S)-pyrrolidinylmethoxy)pyridine Dihydrochloride]
- inhibition at 1 µM [1, 2]: 27%
- melting point: 264 to 268 °C

Compound: CN1CCC[C@H]1COc1cnc(Cl)c(Br)c1.Cl.Cl [Example 24, 5-Bromo-6-chloro-3-(1-methyl-2-(S)-pyrrolidinylmethoxy)pyridine Dihydrochloride]
- inhibition at 1 µM [1, 2]: 17%
- melting point: 189 to 191 °C

Compound: CN1CCC[C@H]1COc1cncc(-c2cncnc2)c1.Cl.Cl [Example 25, 5-(5-Pyrimidinyl)-3-(1-methyl-2-(S)-pyrrolidinylmethoxy)pyridine Dihydrochloride]
- Emax [1, 4]: 4.5%
- melting point: 205 to 220 °C

Compound: CN1CCC[C@H]1COc1cnc(Cl)c(-c2ccccc2)c1.Cl.Cl [Example 26, 5-Phenyl-6-chloro-3-(1-methyl-2-(S)-pyrrolidinylmethoxy)pyridine Dihydrochloride]
- inhibition at 1 µM [1, 2]: 47%
- melting point: 180 to 183 °C

Compound: CN1CCC[C@H]1COc1cncc(C#CCCCCO)c1 [Example 28, 5-(6-Hydroxy-1-hexynyl)-3-(1-methyl-2-(S)-pyrrolidipylmethoxy)pyridine Dihydrochloride]
- inhibition at 1 µM [1, 2]: 20%

Compound: CN1CCC[C@H]1COc1cncc(C=CC=CC(C)(C)C)c1.Cl.Cl [Example 30, 5-(5,5-Dimethyl-1,3-hexadienyl)-3-(1-methyl-2-(S)-pyrrolidinylmethoxy)pyridine Dihydrochloride]
- inhibition at 1 µM [1, 2]: 21%
- inhibition at 10 µM [1, 3]: 90%
- melting point: 148 to 150 °C

Compound: Cl.Cl.Clc1ncc(OC[C@@H]2CCCN2)cc1C=Cc1ccncc1 [Example 33, 5-(2-(4-Pyridinyl)ethenyl)-6-chloro-3-(2-(S)-pyrrolidinylmethoxy)pyridine Dihydrochloride]
- Emax [1, 4]: 47%
- melting point: 235 to 240 °C

Compound: CN1CCC[C@H]1COc1cncc(C#CC(C)(C)C)c1 [Example 47, 5-(3,3-Dimethylbutynyl)-3-(1-methyl-2-(S)-pyrrolidinylmethoxy)pyridine Dihydrochloride]
- inhibition at 1 µM [1, 2]: 66%

Compound: Cc1ccc(C#Cc2cncc(OC[C@@H]3CCCN3C)c2)cc1.Cl.Cl [Example 48, 5-(2-(4-Methylphenyl)ethynyl)-3-(1-methyl-2-(S)-pyrrolidinylmethoxy)pyridine Dihydrochloride]
- inhibition at 1 µM [1, 2]: 40%
- melting point: 197 to 199 °C

Compound: CCCCCCC#Cc1cncc(OC[C@@H]2CCCN2C)c1 [Example 49, 5-Octynyl-3-(1-methyl-2-(S)-pyrrolidinylmethoxy)pyridine Dihydrochloride]
- inhibition at 1 µM [1, 2]: 33%

Compound: Cl.Cl.c1ccc(-c2cncc(OC[C@@H]3CCCN3)c2)cc1 [Example 51, 5-Phenyl-3-(2-(S)-pyrrolidinylmethoxy)pyridine Dihydrochloride]
- inhibition at 1 µM [1, 2]: 42%
- melting point: 134 to 136 °C

Compound: Cl.Cl.c1ccc(-c2cncc(OC[C@H]3CCCN3)c2)cc1 [Example 52, 5-Phenyl-3-(2-(R)-pyrrolidinylmethoxy)pyridine Dihydrochloride]
- inhibition at 1 µM [1, 2]: 22%
- inhibition at 10 µM [1, 3]: 88%
- melting point: 129 to 131 °C

Compound: CN1CCC[C@@H]1COc1cncc(-c2ccccc2)c1.Cl.Cl [Example 53, 5-Phenyl-3-(1-methyl-2-(R)-pyrrolidinylmethoxy)pyridine Dihydrochloride]
- inhibition at 1 µM [1, 2]: 35%
- inhibition at 10 µM [1, 3]: 100%
- melting point: 89 to 90 °C

Compound: Cl.Cl.c1ccc(-c2cncc(OC[C@@H]3CCN3)c2)cc1 [Example 56, 5-Phenyl-3-(2-(S)-azetidinylmethoxy)pyridine Dihydrochloride]
- IMR-32 maximal response [1, 4]: 20%
- % Inhibition @ 1 μM [1, 2]: 16%

Compound: CN1CC[C@H]1COc1cncc(-c2ccccc2)c1.Cl.Cl [Example 57, 5-Phenyl-3-(1-methyl-2-(S)-azetidinylmethoxy)pyridine Dihydrochloride]
- inhibition at 1 µM [1, 2]: 21%
- melting point: 120 to 122 °C

Compound: Clc1ncc(OC[C@@H]2CCN2)cc1-c1ccccc1 [Example 67, 5-Phenyl-6-chloro-3-(2-(S)-azetidinylmethoxy)pyridine Hidrochloride]
- Emax [1, 4]: 90%

Compound: CN1CCC[C@@H]1COc1cnc(Cl)c(-c2ccccc2)c1 [Example 69, 5-Phenyl-6-chloro-3-(1-methyl-2-(R)-pyrrolidinylmethoxy)pyridine Dihydrochloride]
- Emax [1, 4]: 6%

Compound: Clc1ncc(OC[C@H]2CCCN2)cc1C=Cc1ccncc1 [Example 81, 5-(2-(4-Pyridinyl)ethenyl)-6-chloro-3-(2-(R)-pyrrolidinylmethoxy)pyridine Dihydrochloride]
- Emax [1, 4]: 32%

Compound: Cl.Cl.Clc1ncc(OC[C@@H]2CCCN2)cc1-c1ccccc1 [Example 84, 5-Phenyl-6-chloro-3-(2-(S)-pyrrolidinylmethoxy)pyridine Dihydrochloride]
- Emax [1, 4]: 37%
- melting point: 75 to 80 °C

Compound: C(=C\c1cncc(OC[C@H]2CCCN2)c1)/c1ccncc1 [Example 86, 5-(2-(4-Pyridinyl)ethenyl)-3-(2-(R)-pyrroylidinylmethoxy)pyridine Trihydrochloride]
- Emax [1, 4]: 44%

Compound: Cl.Cl.Cl.c1cc(CCc2cncc(OC[C@H]3CCCN3)c2)ccn1 [Example 87, 5-(2-(4-Pyridinyl)ethyl)-3-(2-(R)-pyrrolidinylmethoxy)pyridine Trihydrochloride]
- Emax [1, 4]: 40%
- melting point: 178 to 180 °C

Compound: Clc1ncc(OC[C@@H]2CCN2)cc1C=Cc1ccncc1 [Example 89, 5-(2-(4-Pyridinyl)ethenyl)-6-chloro-3-(2-(S)-azetidnylmethoxy)pyridine Citric Acid Salt]
- Emax [1, 4]: 72%

Compound: O=C(NCc1cc(OC[C@@H]2CCN2)cnc1Cl)c1ccccc1 [Example 92, 3-(2-(S)-Azetidinylmethoxy)-5-(N-benzoylamino)methyl-6-chloropyridine Hydrochloride]
- Emax [1, 4]: 25%

Compound: c1csc(-c2cncc(OC[C@@H]3CCN3)c2)c1 [Example 154, 3-(2-(S)-Azetidinylmethoxy)-5-(2-thienyl)pyridine Dihydrochloride]
- Emax [1, 4]: 1.5%

Compound: C=Cc1cc(OC[C@@H]2CCN2)cnc1Cl.Cl.Cl [Example 165, 3-(2-(S)-Azetidinylmethoxy)-6-chloro-5-ethenylpyridine Dihydrochloride]
- Emax [1, 4]: 127%
- melting point: 121 °C (dec.)

Compound: C=CCc1cncc(OC[C@@H]2CCN2)c1 [Example 181, 5-Allyl-3-(2-(S)-azetidinylmethoxy)pyridine Hydrochloride]
- Emax [1, 4]: 82%

Compound: C=CCc1cc(OC[C@@H]2CCCN2)cnc1Cl [Example 183, 5-Allyl-6-chloro-3-(2-(S)-pyrrolidinylmethoxy)pyridine Hydrochloride]
- Emax [1, 4]: 110%

Compound: CC(=O)NCc1cc(OC[C@@H]2CCN2)cnc1Cl [Example 206, 5-Acetamidomethyl-3-(2-(S)-azetidinylmethoxy)-6-chloropyridine Dihydrochloride]
- Emax [1, 4]: 11%
